How the values were obtained:
SelH = SelH (Homo sapiens, UniProt Q8IZQ5, U44C); assay: Surface plasmon resonance (SPR) detection of affinity between compounds and SelH; type: binding
Text: A Cys-deficient Escherichia coli expression system was adopted, which is an effective method to prepare selenoprotein found in recent years. Itsbasic principle is as follows: the characteristic that Cys transfer RNA (tRNACys) can bind to Sec was utilized, and a culture medium which is lack of cysteine (Cys) and rich in Selenium cysteine (Sec) was used for culturing a strain, so that Sec was successfully incorporated into newly expressed protein. According to existing literature reports, a human SelH gene sequence was obtained. Selenocysteine of the SelH is in the middle of the sequence and was terminated here during prokaryotic expression, so that the selenocysteine was mutated from a triple codon TGA of the selenocysteine into TGC, which was synthesized by the Sangon Bioengineering (Shanghai) Co., Ltd. In addition, the adopted SPP system was a single protein production system, and a principle of the SPP system was to induce MazF enzyme (mRNA interfering enzyme for cutting RNA on an ACA nucleotide sequence) to cause growth arrest of thalli. The enzyme can specifically recognize and cut the ACA sequence and prevent synthesis of other background proteins in bacteria. Therefore, when mRNA of the desired target protein was encoded, if the mRNA can be designed into a form lacking an ACA base triplet according to an amino acid encoding rule and was induced at 15° C. by using a pCold vector in cells expressing MazF, the mRNA was not enzymatically hydrolyzed, only a protein derived from the mRNA was generated, and there was little synthesis of other cell proteins.
A pColdI-selH plasmid was transformed into BL21 (DE3) Cys-deficient Escherichia coli, so as to obtain a defective expression bacterium pColdI-selH. Sec was added during culture, making it become selenium-containing protein. The target protein was purified by using Ni^2+ column chelating chromatography, and impure protein was eluted by using an imidazole eluent of different concentrations to finally obtain the target protein. Soluble SelH protein was finally obtained, and SDS-PAGE (sodium dodecyl sulfate polyacrylamide gel electrophoresis) analysis was carried out.
A surface plasmon resonance (SPR) method was adopted to detect the interaction condition of a small molecule and a protein, so that the screening of drugs targeting SelH was carried out.
Purified SelH was diluted into a 50 μg/mL protein solution by using 10 mM sodium acetate with a pH value of 5.5, the purified SelH was fixed onto a CM5 chip by an amino coupling method by using Biacore 8K (GE Healthcard, Sweden), and an RU value was recorded.
An isopentenyl or isovaleryl substituted coumarin compound, or a triterpenoid compound with an isopentenyl-like structure (the compound specifically includes aurapten, protopanaxadiol, iso-imperatorin, decursin, osthol, notoginsenoside R1 and shionon) was dissolved in 100% DMSO to be prepared into solutions containing 5% DMSO of different concentrations (0, 31.25, 62.5, 125, 250 and 500 μM) by using a 1.05×PBS-P^+ buffer solution (GE Healthcare, obtained by diluting 10×PBS-P^+).
A single-cycle kinetics method was adopted, the 1.05×PBS-P^+ buffer solution containing 5% DMSO was used as a Running Buffer, different compounds of different concentrations flowed through the SelH fixed onto the chip, wherein the binding time was 120 s, and the change condition of the RU value was recorded. An equilibrium dissociation constant (KD) was calculated by using software in Biacore 8K so as to evaluate the binding affinity between the protein and the compounds. The SPR detection result of the affinity between compounds and SelH in Embodiment 2 of the present disclosure is as shown in FIG. 1A-G, and the result statistics is as shown in Table 1.
(1) Screening of small molecule drugs by taking SelH as a target A surface plasmon resonance (SPR) method was adopted to detect the interaction condition of a small molecule and a protein, so that the screening of drugs targeting SelH was carried out. […]

[1] = test system: SELH-deficient LN229 cells and RCC cells (786-O and RCC4); assay: CCK8 assay in SELH-deficient (CRISPR/CAS9) cells; type: cell-based; details: CCK8, compared to wild-type cells
Text: SELH knockout LN229 cell lines and B16 were generated using the CRISPR/Cas9 technique described by Shalem et al., Science 343: 84 (2014). The gDNA for targeting SELH was designed as follows: Oligo 1, 5′-[…]-3′; Oligo 2, 5′-[…]-3′; the gDNA for targeting mouse SELH was designed as follows: Oligo 1, 5′-[…]-3′; Oligo 2, 5′-[…]-3′, and subcloned into Cas9 carrying vector (pX330). The two resultant plasmids and puromycin-expressing vector (pPGK-puro) were co-transfected at a ratio of 1:1:1 into LN229 or B16 cells using Lipofectamine 2000 (Invitrogen). Twenty-four hours later, the transfected cells were subjected to puromycin (Sigma) at 1 μg/mL for 7 days. One week after selection, the surviving clones were expanded, followed by extraction of total protein for standard western blotting analysis.

SELH protein expression = SELH protein expression (Homo sapiens (Human), UniProt Q8IZQ5); assay: Western blot of SELH protein in ISP I-treated cells; type: cell-based
Chain of SELH protein expression (Q8IZQ5 whole entry): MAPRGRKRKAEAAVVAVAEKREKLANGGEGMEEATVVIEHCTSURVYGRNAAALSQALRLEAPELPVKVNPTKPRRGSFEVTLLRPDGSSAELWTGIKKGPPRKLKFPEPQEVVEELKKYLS
Text: A cycloheximide (CHX) chase assay was completed to assess ISP I's effect on SELH protein degradation.

Chain of SelH (Q8IZQ5 with tags, fused parts or gaps U44C): as the sequence (Q8IZQ5 whole entry) above, with U44C counted along it

CO[C@@H]1[C@@H](O[C@@H]2O[C@H](C)[C@@H](O[C@H]3C[C@@](C)(O)[C@@H](OC(=O)CC(C)C)[C@H](C)O3)[C@H](N(C)C)[C@H]2O)[C@@H](CC=O)C[C@@H](C)[C@@H](O[C@H]2CC[C@H](N(C)C)[C@@H](C)O2)/C=C/C=C/C[C@@H](C)OC(=O)C[C@H]1O [Isovalerylspiramycin I, 4″-isovalerylspiramycin I]
Kd (SelH; SPR Biacore 8K, single-cycle kinetics, Table 3, read-out: KD binding of macrolides and cyclic peptides to SelH): 2480 nM | binding activity to the SelH (in words) (SelH; ranking within the table's compounds): strongest | response of SELH-deficient cells to treatment [1]: SELH-deficient cells were resistant to ISP I treatment | SELH protein expression (SELH protein expression; LN229 cells, different concentrations of ISP I): reduced SELH protein expression in LN229 cells in a dose-dependent manner | SELH levels in glioblastoma cell lines (SELH protein expression; T98G, U118, LN229, U251, 10 μg/mL of ISP I for 24 hours): decreased SELH levels

From patent publication US20240118263A1, “TARGET FOR SCREENING ANTI-TUMOR DRUG, USE THEREOF AND SCREENING METHOD THEREFOR” (SHENYANG FUYANG PHARMACEUTICAL TECHNOLOGY CO., LTD., priority 2019, published 2024)
